Experimental data reported in patent US20110028401A1, “CRIPTO BLOCKING MOLECULES AND THERAPEUTIC USES THEREOF” (CONSIGLIO NAZIONALE DELLE RICERCHE, priority 2009, published 2011).

Legend:
[1] = tested on: wild-type EBs; experiment: Cardiomyogenesis (beating areas) in wild-type embryoid bodies; format: cell-based, mouse
Procedure: Undifferentiated ESCs were cultured as previously described^55.
Given the neutralizing activity of the peptide, the authors then asked whether Cripto BP was able to block ALK-4/Smad2-dependent Cripto signalling in ESCs and thereby mimic the absence of cripto in an ESC differentiation assay. The authors first evaluated whether Cripto BP was able to prevent Cripto-induced Smad2 phosphorylation of serum starved 2 day-old cripto^−/− Embryoid Bodies (EBs), as assessed by Western blot analysis. Recombinant soluble Cripto protein stimulated Smad2 phosphorylation^35. This effect was not modified by the presence of increasing amounts of either Cripto DP or CP (2.5 μM and 25 μM) (FIG. 6a). […] The authors thus asked whether the neutralizing activity of Cripto BP on endogenous Cripto signalling was also able to block cardiomyogenesis in wild-type ESCs. To this end, 2 day-old wild-type EBs were treated with increasing amounts of either CP or Cripto BP, ranging from 5.0 to 25 μM, and the percentage of EBs containing beating areas was scored from days 8 to 12 of the differentiation (n=˜60 EBs/group; FIG. 6b). Given that the peptides were dissolved in DMSO, control untreated EBs were compared with DMSO treated EBs.

[2] = tested on: Parkinsonian rats; experiment: Amphetamine-induced rotational behaviour of ESC-grafted Parkinsonian rats; format: in vivo, rat; conditions: for improvement in amphetamine-induced rotations: pre-treated ESCs + peptide infusion
From the text: (§1) Thirty-seven adult male Sprague Dawley rats (250-350 g; from ARC, Australia) were housed and treated according to the guidelines of the Australian and Howard Florey Institute animal ethics committee (07-030). Animals received unilateral stereotaxic injections of 6-OHDA into the substantia nigra pars compacta (SNpc) to create a complete lesion of the midbrain DA neurons, as previously described^29. Lesioned animals were selected for transplantation based on their response to amphetamine induced rotational behaviour as previously described^29. Animals making greater than 6 rotations/min (lesion greater than 80%) were selected for grafting.
(§2) Two days prior to grafting animals began cyclosporine-A immune suppression (10 mg/kg). Fourteen days post-lesioning selected animals (determined by behavioural rotations) were again anesthetized and stereotaxically injected with 1 μl of cell suspension at each of the 4 sites as previously described^29. Stereotaxic coordinates of 1st & 2nd Injection (from bregma): anterior 0.2 mm, lateral 3.0 mm, ventral 4.5 and 5.0 mm; 3rd & 4th Injection, anterior 1.0 mm, lateral 2.5 mm, ventral 4.5 and 5.0 mm; incisor bar 0 mm^57). ESCs were differentiated as outlined in FIG. 7a. In brief, ESC colonies were dissected away from the stromal feeder layer and dissociated using collagenase/dispase with agitation (700 μg/ml, Roche, for 20 min, 80 rpm). Cells were subsequently resuspended at a density of 3,000 cells/μl ready for grafting. Five rats received Sham injections (4 μl N2 media, 1 μl/site), 16 rats received a total of 12,000 ESCs (4×1 μl grafts) pre-treated with the Control peptide (of which 9 of these animals also received infusion of the Control peptide) and a further 16 rats received grafts pretreated with the Cripto blocking peptide (9 animals receiving infusion of the Cripto BP).
(§3) The peptide infusion was performed by implantation of a cannula into the striatum (Alzet brain infusion kit) connected to a subcutaneously placed osmotic minipump (Alzet) prefilled with either CP or Cripto BP. Implantation was performed at the same time as the cell grafting. Cannula coordinates: anterior 0.5 mm, lateral 1.5 mm, ventral 5.0 mm; incisor bar 0 mm^57. The osmotic pump was capable of continuously delivering the peptide over a 3 weeks period (75 μM, 0.25 μl/hr) upon which time the animals were briefly anaesthetized with isoflurane and the pump removed through a small incision over the scapular region.

[3] = tested on: Parkinsonian rats; experiment: Tumor formation after ESC transplantation into striatum of 6-OHDA lesioned rats; format: in vivo, rat
From the text: as §1, §2, §3
Eight weeks post grafting, rats were killed by an overdose of sodium pentobarbital (100 mg kg^−1 i.p.) and intracardially perfused as previously described^29. Brains were removed, post fixed for 1 hour, and then left overnight at 4° C. in 20% sucrose in PBS. The following day, 20 μm-thick coronal sections were cut serially through the striatum (12 series) and 50 μm through the SNpc and mounted directly onto chrome alum [K2Cr(SO4)2.12H2O] gelatinized slides.
One series of slides containing grafted striata was counterstained using 1% Neutral red to visualise the graft/tumor size and the gross morphology of the striatum.
Labeling was visualized by light or fluorescent illumination using an inverted microscope (DMIRB, Leica Microsystems, Wetzelar, Del., http://www.leica-microsystems.com) or upright microscope (Leica DMLB2). Images were acquired on a DC 350 FX camera (Leica). Area of grafts and tumors was calculated using Stereo Investigator software (MicroBrightField, Vt., USA).

[4] = biological target: T1, Cripto protein (Mus musculus, UniProt P51865); experiment: ELISA binding of recombinant Cripto to plate-coated peptide; conditions: peptide coated at 50 μM; Cripto 50 to 200 ng/ml
T1 construct: made in house
Procedure: To evaluate the binding of Cripto BP to either Cripto or ALK-4 receptor, BP or control peptides (CP; 50 μM) were coated on the surface of a 96-well microtiter plate and incubated over night at 4° C. Wells were washed five times with PBS Tween (PBT) and the aspecific sites blocked for 3 h at RT with 1% Bovine Serum Albumin (BSA) in PBS, 180 μL/well. Wells were washed as above, and the recombinant form of either ALK-4-humanFc chimeric receptor or Cripto protein in PBT were added at the indicated concentrations and incubated for 1 h at 37° C. followed by 1 hr at RT. After washing with PBT, to evaluate the binding of Cripto to 26-23-23, rabbit anti-Cripto IgG (6 μg/ml) were added to the plates and incubated 1 h at 37° C. and 1 hr at RT. After washing in PBT, a goat anti-rabbit […] (Santa Crutz) was added to the plate (0.3 μg/ml) and incubated 1 h at RT. Finally, the plate was developed as reported above. To evaluate the binding of ALK4 to 26-23-23, the extracellular domain of ALK-4 receptor fused to human Fc (R&D Systems) was added at the indicated concentrations and a goat anti-human Fc (Jackson ImmunoResearch; 1:1000) was used.

[5] = tested on: wild-type EBs; experiment: QRT-PCR of cardiac and neuronal markers in EBs; format: cell-based, mouse; conditions: 25 μM peptide, 13 day-old EBs
Procedure: Total RNAs from 13 day-old EBs was extracted with TRIzol kit (Life Technologies Inc.) according to manufacturer's instructions. One microgram of total RNA was used for cDNA synthesis with SuperScript II reverse transcriptase (Life Technologies Inc.) and random hexamers. Quantitative Real time PCR was performed using SYBR Green PCR master mix (EuroClone), according to manufacturer's instructions. The primers used are described in Table S2.

T1 sequence (P51865 18-156 limits assumed): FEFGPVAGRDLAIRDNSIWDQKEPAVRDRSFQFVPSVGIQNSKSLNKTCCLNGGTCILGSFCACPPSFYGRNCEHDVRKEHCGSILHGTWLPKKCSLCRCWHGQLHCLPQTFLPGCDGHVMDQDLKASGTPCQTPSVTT

Structure (SMILES): C[S+]([O-])CCC(N)C(=O)N[C@@H](CSCc1ccccc1)C(=O)N[C@@H](CSCc1ccccc1)C(=O)N[C@@H](CCCCNC(=O)[C@H](CSCc1ccccc1)NC(=O)[C@H](CSCc1ccccc1)NC(=O)[C@@H](N)CC[S+](C)[O-])C(=O)N[C@@H](CCCCNC(=O)[C@H](CCCCNC(=O)[C@H](CSCc1ccccc1)NC(=O)[C@H](CSCc1ccccc1)NC(=O)[C@@H](N)CC[S+](C)[O-])NC(=O)[C@H](CSCc1ccccc1)NC(=O)[C@H](CSCc1ccccc1)NC(=O)[C@@H](N)CC[S+](C)[O-])C(=O)NCC(=O)O (stereo partly shown) [Cripto BP]
- rhythmically contracting (beating) EBs ([1]; 25 μM peptide, wild-type EBs, mean±SD): 3.7%±3.5
- effect on the percentage of beating EBs (cardiomyogenesis) ([1]; 5.0 to 25 μM, scored days 8 to 12): dose-dependent inhibition of cardiomyogenesis
- functional improvement in rotational behaviour compared to shams ([2]; 12,000 ESCs pre-treated, without infusion): significant reductions in amphetamine induced rotational behaviour as early as week 2 post-grafting
- improvement in amphetamine-induced rotations [2]: significantly improved functional recovery
- improvement in amphetamine-induced rotations ([2]; mean±SD): 69.6±8.4%
- reduction in amphetamine induced rotational behaviour ([2]; pre-treated ESCs without infusion, 8 weeks postgrafting, mean±SD): 66.2±8.4%
- tumor volume ([3]; ESCs pre-treated with peptide + peptide infusion): 0.79 um^3×10^10
- tumor formation (rats with tumors) ([3]; ESCs pre-treated with peptide, no infusion, 8 weeks): 42%
- tumor volume ([3]; ESCs pre-treated with peptide, no infusion, Mean±SEM): 1.09 um^3×10^10
- further reduction of tumor incidence by continual infusion into the striatum ([3]; pre-treated ESCs + peptide infusion (75 μM, 0.25 μl/hr, 3 weeks)): 9%
- animals with grafts without proliferating or undifferentiated cells ([3]; range over pre-treatment without and with infusion): 58-67%
- reduction of tumor formation compared to control peptide ([3]; rat, in vivo): more than 50%
- binding of recombinant Cripto to immobilized peptide [4]: specifically recognized the immobilized Cripto BP, in a dose-dependent manner
- expression of cardiac specific marker MLc2v [5]: reduced
- expression of midbrain dopaminergic neuron markers (Pitx3, Wnt5a, Shh, TH, DAT) [5]: showed expression of markers characteristic of developing midbrain dopaminergic neurons
- expression of pan neuronal marker NFM [5]: induced
